System: 991263-137-R1-J2-PDC complex spheroid viability
Assay: Anticancer human tumor 991263-137-R1-J2-PDC patient-derived colon adenocarcinoma cell line growth inhibition [POLQ]
Conditions: for IC50: curve of first compound; for viability, T/C: stronger effect = lower value
Procedure, shortened: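 PDC + HUVEC + MSC complex spheroids; POLQ inhibitors ± partner drugs; top conc. at/near clinical Cmax, else 10 microM (SN-38 1 microM), half-log dilutions; 37 degrees C, 5% CO2.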

[1] = second compound 0.0316 µM, first compound 0.0316 µM
[2] = second compound 0.0316 µM, first compound 0.1 µM
[3] = second compound 0.0316 µM, first compound 0.316 µM
[4] = second compound 0.0316 µM, first compound 1 µM
[5] = second compound 0.0316 µM, first compound 3.16 µM
[6] = second compound 0.0316 µM, first compound 10 µM
[7] = second compound 0.1 µM, first compound 0.0316 µM
[8] = second compound 0.1 µM, first compound 0.1 µM
[9] = second compound 0.1 µM, first compound 0.316 µM
[10] = second compound 0.1 µM, first compound 1 µM
[11] = second compound 0.1 µM, first compound 3.16 µM
[12] = second compound 0.1 µM, first compound 10 µM
[13] = second compound 0.316 µM, first compound 0.0316 µM
[14] = second compound 0.316 µM, first compound 0.1 µM
[15] = second compound 0.316 µM, first compound 0.316 µM
[16] = second compound 0.316 µM, first compound 1 µM
[17] = second compound 0.316 µM, first compound 3.16 µM
[18] = second compound 0.316 µM, first compound 10 µM
[19] = second compound 1 µM, first compound 0.0316 µM
[20] = second compound 1 µM, first compound 0.1 µM
[21] = second compound 1 µM, first compound 0.316 µM
[22] = second compound 1 µM, first compound 1 µM
[23] = second compound 1 µM, first compound 3.16 µM
[24] = second compound 1 µM, first compound 10 µM
[25] = second compound 3.16 µM, first compound 0.0316 µM
[26] = second compound 3.16 µM, first compound 0.1 µM
[27] = second compound 3.16 µM, first compound 0.316 µM
[28] = second compound 3.16 µM, first compound 1 µM
[29] = second compound 3.16 µM, first compound 3.16 µM
[30] = second compound 3.16 µM, first compound 10 µM
[31] = second compound 10 µM, first compound 0.0316 µM
[32] = second compound 10 µM, first compound 0.1 µM
[33] = second compound 10 µM, first compound 0.316 µM
[34] = second compound 10 µM, first compound 1 µM
[35] = second compound 10 µM, first compound 3.16 µM
[36] = second compound 10 µM, first compound 10 µM
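Note: spheroids exposed to compounds for 7 days before readout.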
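Throughout, for viability, T/C: 100% = DMSO vehicle control viability.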

## COc1cccc2c1C(=O)c1c(O)c3c(c(O)c1C2=O)CC(O)(C(=O)CO)CC3OC1CC(N)C(O)C(C)O1 (centres undefined) + Cc1cccc(N(C)C(=O)C2C(O)CCN2c2nc(C)cc(C(F)(F)F)c2C#N)c1
Second compound 0.0316 µM
  IC50: 1410 nM
Second compound 0.1 µM
  IC50: 1850 nM
Second compound 0.316 µM
  IC50: 1740 nM
Second compound 1 µM
  IC50: 976 nM
Second compound 3.16 µM
  IC50: 1010 nM
Second compound 10 µM
  IC50: 790 nM
[1]
  viability, T/C: 90.1%
[2]
  viability, T/C: 99.4%
[3]
  viability, T/C: 79.1%
[4]
  viability, T/C: 55.9%
[5]
  viability, T/C: 38.5%
[6]
  viability, T/C: 35.3%
[7]
  viability, T/C: 105%
[8]
  viability, T/C: 91.9%
[9]
  viability, T/C: 92.2%
[10]
  viability, T/C: 56.7%
[11]
  viability, T/C: 46.2%
[12]
  viability, T/C: 33.8%
[13]
  viability, T/C: 114%
[14]
  viability, T/C: 99.4%
[15]
  viability, T/C: 94.8%
[16]
  viability, T/C: 57.2%
[17]
  viability, T/C: 41.7%
[18]
  viability, T/C: 34.1%
[19]
  viability, T/C: 92.8%
[20]
  viability, T/C: 95.4%
[21]
  viability, T/C: 102%
[22]
  viability, T/C: 48.9%
[23]
  viability, T/C: 44.3%
[24]
  viability, T/C: 27.6%
[25]
  viability, T/C: 99.6%
[26]
  viability, T/C: 107%
[27]
  viability, T/C: 74.2%
[28]
  viability, T/C: 51.8%
[29]
  viability, T/C: 36.4%
[30]
  viability, T/C: 26.9%
[31]
  viability, T/C: 97.1%
[32]
  viability, T/C: 78.3%
[33]
  viability, T/C: 68.9%
[34]
  viability, T/C: 40.8%
[35]
  viability, T/C: 33.7%
[36]
  viability, T/C: 15.7%

## O=c1[nH]cc(F)c(=O)[nH]1 + Cc1cccc(N(C)C(=O)C2C(O)CCN2c2nc(C)cc(C(F)(F)F)c2C#N)c1
Second compound 0.0316 µM
  IC50: > 10000 nM
Second compound 0.1 µM
  IC50: > 10000 nM
Second compound 0.316 µM
  IC50: > 10000 nM
Second compound 1 µM
  IC50: > 10000 nM
Second compound 3.16 µM
  IC50: > 10000 nM
Second compound 10 µM
  IC50: > 10000 nM
[1]
  viability, T/C: 102%
[2]
  viability, T/C: 116%
[3]
  viability, T/C: 94%
[4]
  viability, T/C: 75.6%
[5]
  viability, T/C: 74.8%
[6]
  viability, T/C: 84.3%
[7]
  viability, T/C: 107%
[8]
  viability, T/C: 90.7%
[9]
  viability, T/C: 79.6%
[10]
  viability, T/C: 93.4%
[11]
  viability, T/C: 85.8%
[12]
  viability, T/C: 82.3%
[13]
  viability, T/C: 124%
[14]
  viability, T/C: 101%
[15]
  viability, T/C: 93%
[16]
  viability, T/C: 83.3%
[17]
  viability, T/C: 77.2%
[18]
  viability, T/C: 80.9%
[19]
  viability, T/C: 110%
[20]
  viability, T/C: 108%
[21]
  viability, T/C: 97.3%
[22]
  viability, T/C: 90.8%
[23]
  viability, T/C: 85.4%
[24]
  viability, T/C: 76%
[25]
  viability, T/C: 108%
[26]
  viability, T/C: 94.8%
[27]
  viability, T/C: 102%
[28]
  viability, T/C: 90.2%
[29]
  viability, T/C: 82.5%
[30]
  viability, T/C: 62.2%
[31]
  viability, T/C: 115%
[32]
  viability, T/C: 95.4%
[33]
  viability, T/C: 94.1%
[34]
  viability, T/C: 70%
[35]
  viability, T/C: 85%
[36]
  viability, T/C: 69.6%

Source: PubChem BioAssay AID1963828 (Molecular Pharmacology Branch, DTP, NCI, 2024)
